The results in this text go back to US8133691B2, “Stable quantitation and detection of immune response levels with non-zero background peptides” (The Henry M. Jackson Foundation for the Advancement of …, priority 2005, dated 2012).

Assay [1] concerns IFN-gamma-secreting cells (PBMC). Nature of the assay: Ex vivo ELISPOT, PBMC stimulated with artificial APC DYNAL beads + [MHC + peptide]. Format: cell-based, human.
For assay [2] the test system is unchanged. Nature of the assay: Ex vivo ELISPOT, PBMC stimulated with plain (non-complexed) peptide. Format: cell-based, human. The following applies: PBMC 3 × 10^5 cells/well. The protocol:
The term “ELISPOT” is used herein, for purposes of the specification and claims, to mean an adaptation of ELISA in which cells are placed over antibodies or antigens attached to a plastic surface. The antigen or antibody traps the cells' secreted products, which can then be detected by using an enzyme-coupled antibody that cleaves a preferably colorless substrate to make a localized colored spot.
In another embodiment, experiments were conducted with the E75 or Telomerase peptides+HLA beads in ex vivo ELISPOT assays run in the absence of stimulation (i.e. culture medium) or with plain or non-complexed E75 or Telomerase peptides. […] These responses have been reproduced in a number of assays using peripheral blood samples from prostate and breast cancer patients. The beads need not be made by DYNAL Biotech. Another biochemical manufacturer—such as BD Biosciences, may produce them.
In another embodiment, experiments were conducted with the E75 or Telomerase peptides+HLA beads in ex vivo ELISPOT assays run with negative control peptides.

For “E37-ve: DYNAL beads + MHC + E37 negative control peptide (RIAWARTEL) [Peptide E37-ve]”, the ELISPOT spots in assay [1] (1 × 10^5 beads/well, PBMC 1 × 10^5 cells/well) stood at 0 spots; in assay [1] (1 × 10^5 beads/well, PBMC 2 × 10^5 cells/well) it was 6 spots; in assay [1] (1 × 10^5 beads/well, PBMC 3 × 10^5 cells/well), 20 spots; in assay [1] (5 × 10^5 beads/well, PBMC 1 × 10^5 cells/well) it was 0 spots; in assay [1] (5 × 10^5 beads/well, PBMC 2 × 10^5 cells/well), 3 spots; in assay [1] (5 × 10^5 beads/well, PBMC 3 × 10^5 cells/well), 8 spots.

Substance “NH2-RIAWARTEL-COOH (H-RIAWARTEL-OH) [Peptide E37, negative control peptide]” showed an ELISPOT spots in assay [2] of 1 spots.
